Reference: ChEMBL document CHEMBL4190278, “Multipotent AChE and BACE-1 inhibitors for the treatment of Alzheimer's disease: Design, synthesis and bio-analysis of 7-amino-1,4-dihydro-2H-isoquilin-3-one derivates” (Eur J Med Chem, 2017)
Active and inactive are the calls of the source. The calls are words filed in the database; no cut-off is given here.

What was measured:
Acetylcholinesterase [1] = molecular target: T1, Acetylcholinesterase (Homo sapiens, UniProt P22303); test: Inhibition of human AChE using acetylthiocholine as substrate by Ellman's method
Acetylcholinesterase [2] = molecular target: T1, Acetylcholinesterase; test: Potency index, ratio of donepezil IC50 to compound IC50 for human AChE
[3] = Metal chelating activity assessed as Cu2+-compound complex formation at 35 uM by UV-Visible spectrophotometric method

T1 sequence (P22303 whole entry): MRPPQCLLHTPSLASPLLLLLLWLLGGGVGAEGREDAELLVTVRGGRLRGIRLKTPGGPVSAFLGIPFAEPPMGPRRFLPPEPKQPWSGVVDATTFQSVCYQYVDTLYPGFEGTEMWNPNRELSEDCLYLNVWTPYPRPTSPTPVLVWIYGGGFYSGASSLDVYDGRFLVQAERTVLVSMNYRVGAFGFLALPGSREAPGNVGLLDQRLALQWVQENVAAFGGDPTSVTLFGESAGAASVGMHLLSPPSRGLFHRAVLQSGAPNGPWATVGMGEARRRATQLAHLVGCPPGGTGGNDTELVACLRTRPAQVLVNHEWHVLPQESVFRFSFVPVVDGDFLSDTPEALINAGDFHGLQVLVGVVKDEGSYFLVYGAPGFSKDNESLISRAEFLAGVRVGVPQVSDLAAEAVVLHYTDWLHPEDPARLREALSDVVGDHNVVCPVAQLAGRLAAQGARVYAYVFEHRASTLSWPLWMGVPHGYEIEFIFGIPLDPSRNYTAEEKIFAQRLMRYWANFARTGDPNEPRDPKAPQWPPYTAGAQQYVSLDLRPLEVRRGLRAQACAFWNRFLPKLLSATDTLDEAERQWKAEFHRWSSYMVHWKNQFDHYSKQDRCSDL

| SMILES | IC50 (Acetylcholinesterase [1]) | Ratio IC50 (Acetylcholinesterase [2]) | Activity [3] |
| --- | --- | --- | --- |
| O=C(Nc1ccc2c(c1)CN(C(=O)c1cccc(Cl)c1)C(=O)C2)c1ccccc1 | 0.0284 nM | – | – |
| O=C1Cc2ccc(NC(=O)c3cccc(Cl)c3)cc2CN1 | 914 nM | – | – |
| COc1ccccc1C(=O)N1Cc2cc(NC(=O)c3cccc(Cl)c3)ccc2CC1=O | – | 315 | – |
| Cc1cccc(C(=O)Nc2ccc3c(c2)CNC(=O)C3)c1 | 791 nM | – | – |
| COc1ccccc1C(=O)Nc1ccc2c(c1)CNC(=O)C2 | 926 nM | – | – |
| Cc1cccc(C(=O)N2Cc3cc(NC(=O)c4cccc(Cl)c4)ccc3CC2=O)c1 | 0.0144 nM | – | – |
| O=C1Cc2ccc(NC(=O)c3ccccc3)cc2CN1 | 1320 nM | – | – |
| O=C(Nc1ccc2c(c1)CN(C(=O)c1ccccc1)C(=O)C2)c1ccccc1 | 0.51 nM | – | – |
| COc1ccccc1C(=O)N1Cc2cc(NC(=O)c3ccccc3)ccc2CC1=O | 0.0189 nM | 181 | Active |
| COc1ccccc1C(=O)Nc1ccc2c(c1)CN(C(=O)c1cccc(C)c1)C(=O)C2 | 0.0259 nM | – | – |
| Cc1cccc(C(=O)N2Cc3cc(NC(=O)c4ccccc4)ccc3CC2=O)c1 | 0.0262 nM | – | – |
| O=C(Nc1ccc2c(c1)CN(C(=O)c1cccc(Cl)c1)C(=O)C2)c1cccc(Cl)c1 | 0.0142 nM | – | – |
| Cc1cccc(C(=O)Nc2ccc3c(c2)CN(C(=O)c2cccc(C)c2)C(=O)C3)c1 | 0.0135 nM | – | – |
| Cc1cccc(C(=O)Nc2ccc3c(c2)CN(C(=O)c2cccc(Cl)c2)C(=O)C3)c1 | 0.0209 nM | – | – |
| COc1ccccc1C(=O)Nc1ccc2c(c1)CN(C(=O)c1ccccc1OC)C(=O)C2 | 0.0216 nM | – | – |
| Nc1ccc2c(c1)CNC(=O)C2 | 1360 nM | – | – |
